From publication PMC3138742 (PLoS ONE, 2011)

Assays:
[1] = tested on: EGFR phosphorylation in NIH3T3-EGFR T790M/L858R cells; test: Western blot of EGFR phosphorylation; format: cell-based; details: 6 h, immunoblotting
Experimental: Cell viability was determined using sulforhodamine B assay. IC50 values were determined based on the results of three independent experiments. […] Whole-cell lysates were assayed for total EGFR and phosphorylation of EGFR by immunoblotting. […] Cell viability was determined using sulforhodamine B assay.

Calu-3 xenograft = test: Human tumor xenograft model, tumor growth; format: in vivo; details: nude mice, p.o. twice daily
Experimental: (§1) The mice were housed and maintained under specific-pathogen free (SPF) conditions. All animal procedures were performed according to the protocol approved by the Institutional Animal Care and Use Committee at Shanghai Institute of Materia Medica, Chinese Academy of Sciences (SIMM-AE-DJ-2010-01). Under sterile conditions, well-developed tumors were cut into 1-mm^3 fragments and transplanted s.c. into the right flank of nude mice using a trocar. When the tumor reached a volume reached 100 to 200 mm^3, the mice were randomly assigned into control and treatment groups. […] The sizes of the tumors were measured twice per week using microcalipers. The tumor volume (V) was calculated as follows: V = (length×width^2)/2. The body weights of the mice were observed simultaneously.

SK-OV-3 xenograft = test: Human tumor xenograft model, tumor growth; format: in vivo; details: nude mice, p.o. twice daily
Experimental: as §1

ErbB2 = ErbB2 (Homo sapiens, UniProt P04626); test: Rapid dilution irreversibility experiment; format: biochemical; set-up: The kinase domain of EGFR, ErbB-2, IGF1R, VEGFR2, FGFR1, PDGFRα, c-Src, c-Met, RON, c-Kit, EphA2 and EphB2 were expressed; made in house; details: preincubated 30 min at 100-fold IC50, diluted 100-fold, sampled 180 minutes
Experimental: The microplate was placed in the EZ Reader (Caliper Life Sciences, MA) and wells were repeatedly sampled for 180 minutes.
To verify this, we determined the reversibility of EGFR and ErbB2 binding using a dilution method. […] After incubating, the enzyme/inhibitor mixture is diluted 100-fold (i.e., to normal reaction conditions), reaction buffer plus ATP and substrate are added, and receptor kinase activity is measured continuously. In general, a reversible inhibitor dissociates quickly, allowing immediate recovery of enzymatic activity, whereas a slowly reversible inhibitor allows a gradual increase in activity. In contrast, an irreversible inhibitor prevents recovery of enzymatic activity.

ErbB2, sequence (P04626 720-987 limits assumed): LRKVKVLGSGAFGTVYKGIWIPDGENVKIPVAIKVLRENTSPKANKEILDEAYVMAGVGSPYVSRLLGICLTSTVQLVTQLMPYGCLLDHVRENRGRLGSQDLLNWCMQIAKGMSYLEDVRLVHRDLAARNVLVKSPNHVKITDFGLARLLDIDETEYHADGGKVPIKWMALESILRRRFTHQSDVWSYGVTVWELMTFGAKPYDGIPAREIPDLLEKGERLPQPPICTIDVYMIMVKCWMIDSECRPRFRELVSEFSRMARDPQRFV

With `CS(=O)(=O)CCNCc1ccc(-c2ccc3ncnc(Nc4ccc(OCc5cccc(F)c5)c(Cl)c4)c3c2)o1` [lapatinib, reference compound] as the compound, how does the “inhibition of EGFR phosphorylation” value [1] read?
Its value is “much weaker inhibitory effect”.

What about the tumor growth (Calu-3 xenograft) of the same compound?
Its tumor growth is “exhibited antitumor activity”.

What about the tumor growth (SK-OV-3 xenograft) of the same compound?
Its tumor growth is “exhibited antitumor activity”.

What about the “recovery of ErbB2 enzymatic activity after dilution” value (ErbB2) of the same compound?
The value was “slow recovery of the enzymatic activity”.
